The text below walks through data of patent US6585953B2, “Synthesis of 17F labeled fluoroalkanes” (Wisconsin Alumni Research Foundation, priority 2000, dated 2003).

Data set [1] can be described thus: Clearance and distribution of inhaled tracer in test subjects. Type of data set: in vivo. The text has this:
Positron emitting ^17F (Eβ^+(max)=1.74 MeV; t½≈64 seconds) has an ideal half life for probing such diverse processes as gray matter cerebral activity or gas-phase reactions on an industrial scale. Because of the very short half life of ^17F, tracers labeled with this isotope such as ^17F labeled fluoromethane provide very short half life cerebral blood flow agents that have important application in PET studies of seizure and other transient brain phenomena. The shorter half life of ^17F with respect to ^15O permits repeat images to be obtained twice as fast with ^17F labeled tracers as compared to ^15O labeled tracers such as water which is presently in wide use as a tracer as described above. The ability to scan twice as fast using ^17F labeled tracers allows more data to be collected in the same amount of time and should allow more test subjects to be evaluated using instruments that are currently in high demand. Additionally, ^17F labeled tracers show improved signal to noise level ratios over ^15O labeled tracers providing increased sensitivity. ^15O tracers such as ^15O labeled water are usually administered in a manner that is more invasive than are tracers such as ^17F labeled fluoromethane. For example, ^15O labeled tracers are usually administered by injection and arterial measurements are then made from an arterial cannulation. On the other hand, ^17F labeled tracers such as fluoromethane may be administered by having a test subject inhale the tracer, and arterial measurements can be made from exhalations.
FIG. 5 is a gas chromatograph (Porpak Q column; He carrier gas; thermal conductivity detector, electrochemical detector, and positron coincidence radiation detector) showing the radiochemical purity of ^17F labeled fluoromethane produced by the present invention. The radiochemical purity of the ^17F labeled fluoromethane was determined to be 91 percent with only ^17F labeled CF4 from the target as a radiochemical impurity. […] Thus, the presence of CF4 only impacts the dosimetry to the lungs and trachea.

The conditions of data set [2]: cited from earlier work.

With `FC(F)(F)F` [CF4], the “distribution into blood when inhaled” value in data set [1] (inhaled as tracer impurity, only impacts dosimetry to lungs and trachea) is “stays out of the blood”.

As for `C[17F]` [^17F labeled fluoromethane], the clearance result in data set [1] (by exhalation) is recorded as “rapidly cleared by exhalation”. Besides, the biological half life entry in data set [1] (in vivo) is recorded as “quite short”.

Turning to `[15OH2]` [^15O labeled water], the permeability surface product entry in data set [2] (at high flows the signal is reduced) is listed as “relatively low”. Besides, the “clearance from test subjects” value in data set [2] (usually administered by injection) is listed as “slow to clear”.
